From patent US6943174B2, “6,5-Fused bicyclic heterocycles” (Warner-Lambert Company, priority 2000, dated 2005)

Columns and labels:
human 15-LO = target: T1, human 15-LO (Homo sapiens, UniProt P16050); assay: Human Lysate 15-LO Assay (HUM15LO); assay type: biochemical; details: 15-LO catalyzed oxidation of linoleic acid, 15 minutes at 4° C.
T1 construct: made in house; host or cells: Sf9 insect cells (baculovirus, Bac-to-Bac)
T1 sequence (P16050 1-662): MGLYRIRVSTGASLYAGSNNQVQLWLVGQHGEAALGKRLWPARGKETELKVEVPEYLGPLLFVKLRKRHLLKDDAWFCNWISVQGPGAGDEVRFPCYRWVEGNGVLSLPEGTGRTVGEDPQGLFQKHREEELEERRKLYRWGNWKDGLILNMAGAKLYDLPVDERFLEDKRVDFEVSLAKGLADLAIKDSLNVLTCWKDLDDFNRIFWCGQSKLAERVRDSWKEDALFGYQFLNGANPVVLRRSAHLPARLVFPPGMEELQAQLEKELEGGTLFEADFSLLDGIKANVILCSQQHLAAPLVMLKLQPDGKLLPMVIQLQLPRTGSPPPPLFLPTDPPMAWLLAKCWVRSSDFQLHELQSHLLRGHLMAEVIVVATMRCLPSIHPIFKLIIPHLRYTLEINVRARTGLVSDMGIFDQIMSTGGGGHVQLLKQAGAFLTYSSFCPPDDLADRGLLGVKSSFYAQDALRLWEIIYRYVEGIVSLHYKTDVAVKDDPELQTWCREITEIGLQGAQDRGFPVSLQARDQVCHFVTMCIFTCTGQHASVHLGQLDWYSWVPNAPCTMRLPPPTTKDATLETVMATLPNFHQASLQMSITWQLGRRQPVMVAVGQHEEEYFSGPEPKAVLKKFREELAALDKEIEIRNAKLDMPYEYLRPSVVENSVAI
Description: The HUM15LO assay measures inhibition of 15-LO catalyzed oxidation of linoleic acid to the hydroperoxy fatty acid 13-(S)HPODE, a conjugated diene. In the HUM15LO assay, a test compound was incubated with 15-LO enzyme in the presence of the linoleic acid substrate. For example, a known amount of a compound of the present invention and 100 μL of human 15-LO and 174 μM of linoleic acid in PBS containing 0.2% sodium cholate were incubated for 15 minutes at 4° C. The test reaction was stopped with 100 μL of mobile phase and 10 μL of triethyl phosphite. […] 13-HPODE was quantitated by comparing peak areas of individual samples with those from a standard curve generated using authentic 13-HODE. The test reaction was compared to a control reaction, which is identical to the test reaction except a test compound is not present. Percent inhibition was calculated as […], expressed as a percent.
Human 15-LO was generated in a recombinant 15-lipoxygenase bacculovirus expression system, using Gibco/BRL/Life Technologies' Bac-to-Bac expression reagents; T4 DNA ligase, Kanamycin, Gentamicin, tetracycline, penicillin, streptomycin, Bluo-gal, IPTC; DH10Bac competent cells, SOC, LB medium, Sf-900 II SFM media, Sf9 insect cells, Cell Fectin, and EcoRI, BamHI, and KpnI restriction enzymes.

Row | inhibition (human 15-LO; at 10 μM) | melting point | IC50 (human 15-LO) | Compound
1 | 39% |  |  | COc1ccc(-c2nc3cccnc3[nH]2)cc1N [Chemical Example 1, 5-(3H-imidazo[4,5-b]pyridin-2-yl)-2-methoxy-phenylamine]
2 |  | 252 to 254 °C | 10 µM | COc1ccc(-c2nc3cccnc3[nH]2)cc1NS(=O)(=O)c1cccs1 [Chemical Example 2, Thiophene-2-sulfonic acid [5-(3H-imidazo[4,5-b]pyridin-2-yl)-2-methoxy-phenyl]-amide]
